A short description of data set [1]: Liver microsomal stability assay. It counts as in vitro ADME, mouse. The note with it: compared to the other analogs. On the technique in general: Liver microsomes are vesicles of endoplasmic reticulum, rich in cytochrome P450 enzymes.
A further data set addresses CDK9 (Homo sapiens (Human), UniProt P50750). The data set is described as follows: DiscoverX Kd Elect binding. The procedure: (§1) HCK is expressed more in human primary leukemic stem cells than in human normal hematopoietic stem cells. […] Other protein kinases such as SYK, BRAF, p38 (p38MAPK), PDGFRα/β, FGFR1, RET, FLT4, Tie2 have also been linked to leukemia. […] Thus, it was tested if HSN286 and analogs were also targeting kinases that play critical roles in AML. […] (Table 9). The inhibition of the Src-kinase family could be important clinically because these kinases are downstream of FLT3. In the event of FLT3 mutation, the inhibition of the Src-family kinases could still lead to proliferation inhibition.

Another data set deals with CDK6 (Homo sapiens (Human), UniProt Q00534). The data set is described as follows: DiscoverX Kd Elect binding. As to the method: as §1
Sequence of CDK6 (Q00534 whole entry): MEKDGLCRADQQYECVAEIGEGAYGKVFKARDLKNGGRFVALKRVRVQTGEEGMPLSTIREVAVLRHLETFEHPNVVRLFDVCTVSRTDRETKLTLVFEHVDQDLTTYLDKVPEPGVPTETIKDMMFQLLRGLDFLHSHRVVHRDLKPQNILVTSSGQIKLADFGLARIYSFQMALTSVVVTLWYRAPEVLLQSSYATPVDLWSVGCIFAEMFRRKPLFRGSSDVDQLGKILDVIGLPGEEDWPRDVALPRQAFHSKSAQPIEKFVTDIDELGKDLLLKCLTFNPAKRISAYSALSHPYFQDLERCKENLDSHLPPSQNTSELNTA

SMILES strings stand for the structures. pKd: −log10 of the molar value.

Sequence of CDK9 (P50750 whole entry): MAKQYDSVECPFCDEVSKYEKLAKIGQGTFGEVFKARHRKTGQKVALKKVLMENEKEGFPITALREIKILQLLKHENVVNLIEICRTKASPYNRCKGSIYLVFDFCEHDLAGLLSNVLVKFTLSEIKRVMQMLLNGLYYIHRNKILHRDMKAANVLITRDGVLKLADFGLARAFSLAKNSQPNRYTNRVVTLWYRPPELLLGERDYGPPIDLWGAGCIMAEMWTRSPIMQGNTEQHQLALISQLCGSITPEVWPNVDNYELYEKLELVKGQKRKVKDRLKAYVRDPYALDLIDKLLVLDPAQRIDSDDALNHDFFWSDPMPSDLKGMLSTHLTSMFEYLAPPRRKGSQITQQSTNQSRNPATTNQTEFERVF

As for `Cc1ccc(C(=O)Nc2ccc(CN3CCN(C)CC3)c(C(F)(F)F)c2)cc1C#Cc1c(N)ncc2ccc(Cl)cc12` [HSN286], the “stability in mouse liver microsomes” value in data set [1] is recorded as “preformed much better”. Further, the figures for the negative logarithm of the Kd (pKd) at CDK9 and on CDK6 were 5.64 and 4.55, respectively.

Usually pKd stands for the negative decadic logarithm of the Kd, by convention in mol/L. The low end stands for a high Kd, the high end for a low Kd.

(Values after patent US20250084039A1, “4-SUBSTITUTED AMINOISOQUINOLINE DERIVATIVES” (Purdue Research Foundation, priority 2016, published 2025).)
